From patent US8153781B2, “Dendrimer conjugates of agonists and antagonists of the GPCR superfamily” (The United States of America as represented by the …, priority 2007, dated 2012)

How the values were obtained:
hA2A AR [1] = biological target: T1, hA2A AR (Homo sapiens, UniProt P29274)
hA2A AR [2] = biological target: T1, hA2A AR; experiment: Radioligand membrane binding assay, A2A AR; set-up: expressed in transfected cells; conditions: for Ki: Table 3, expressed in CHO cells
Experimental: (§1) Radioligand Membrane Binding Experiments. Radioligand binding assays were performed for A1, A2A, and A3 ARs. Each tube in the binding assay contained 100 μL of membrane suspension (20 μg of protein), 50 μL of agonist radioligand, and 50 μL of increasing concentrations of the test ligands in Tris-HCl buffer (50 mM, pH 7.5) containing 10 mM MgCl2. Nonspecific binding was determined using […] 5′-N-ethylcarboxamidoadenosine diluted with the buffer. The mixtures were incubated at 25° C. for 60 min. Binding reactions were terminated by filtration through Whatman GF/B filters under a reduced pressure using a MT-24 cell harvester (Brandell, Gaithersburg, Md.). Filters were washed three times with 5 mL of 50 mM ice-cold Tris-HCl buffer (pH 7.5). […] After the filters were washed, the radioactivity was measured using a Beckman γ-counter. For the A1 and A2A assays, the radioactive agonists [^3H] N^6-chlorocyclopentyladenosine and [^3H] 2-(4-(2-carboxyethyl)phenylethylamino)-5′-N-ethylcaboxamido-adenosine were used, respectively. After the filters were washed, they were placed in scintillation vials containing 5 mL of Hydrofluor scintillation buffer and counted using a Perkin Elmer Liquid Scintillation Analyzer. The Ki value was determined using GraphPad Prism for all assays.

hA3 AR [3] = biological target: T2, hA3 AR (Homo sapiens, UniProt P0DMS8); experiment: Calcium protocol, CHO cells expressing human A3 receptor; type: cell-based
T2 construct: expressed in transfected cells; host or cells: CHO cells
T2 sequence (P0DMS8 1-318): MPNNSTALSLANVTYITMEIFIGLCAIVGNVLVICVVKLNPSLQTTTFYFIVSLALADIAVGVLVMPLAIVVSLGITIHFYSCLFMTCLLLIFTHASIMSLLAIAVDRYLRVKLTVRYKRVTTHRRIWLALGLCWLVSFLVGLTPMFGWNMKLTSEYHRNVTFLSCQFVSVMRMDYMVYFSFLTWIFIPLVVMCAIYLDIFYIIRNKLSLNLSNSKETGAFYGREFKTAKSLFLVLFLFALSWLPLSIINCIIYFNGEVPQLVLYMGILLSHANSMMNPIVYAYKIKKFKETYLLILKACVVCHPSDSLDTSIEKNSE
Experimental: Calcium Protocol. Chinese Hamster Ovary (CHO) cells stably expressing the human A3 receptor were grown in Dulbecco's Modified Eagle Medium/F12 (Sigma) supplemented with 10% fetal bovine serum, antibiotics, and glutamine. Each assay was completed by passaging the CHO A3 cells into 96 well plates and incubating overnight at 37° C. with 5% CO2. The FLIPR Calcium 4 Kit provided by Molecular Devices was used as described previously (Niebauer). Briefly, the media was removed from the cells, and 30 μl of the Calcium 4 fluorescent dye supplemented with 2.5 mM probenecid was added to each well. The cells were incubated at room temperature for 45 minutes. The compound plate was prepared by diluting the compounds to 10^−5-10^−9 M in Hanks Buffer. Samples were run in duplicate on the Molecular Devices FlexStation I at room temperature. […] Increases in intracellular calcium are reported as the relative fluorescence units after exposure minus the basal fluorescence value before exposure. Each experiment was repeated at least three times.

hA1 AR = biological target: T3, hA1 AR (Homo sapiens, UniProt P30542); experiment: Radioligand membrane binding assay, A1 AR; conditions: Table 3; expressed in CHO cells
T3 construct: expressed in transfected cells; host or cells: CHO cells
T3 sequence (P30542 1-326): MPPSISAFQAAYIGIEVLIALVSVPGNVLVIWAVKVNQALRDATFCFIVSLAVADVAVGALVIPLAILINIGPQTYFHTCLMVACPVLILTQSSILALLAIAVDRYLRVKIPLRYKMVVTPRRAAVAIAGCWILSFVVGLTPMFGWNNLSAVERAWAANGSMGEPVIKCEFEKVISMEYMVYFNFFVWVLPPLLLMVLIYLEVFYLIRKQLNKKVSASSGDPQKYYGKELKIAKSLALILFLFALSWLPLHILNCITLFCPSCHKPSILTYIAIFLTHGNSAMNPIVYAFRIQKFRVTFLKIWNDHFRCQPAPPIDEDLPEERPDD
Experimental: Radioligand Membrane Binding Experiments. […] Each tube in the binding assay contained 100 μL of membrane suspension (20 μg of protein), 50 μL of agonist radioligand, and 50 μL of increasing concentrations of the test ligands in Tris-HCl buffer (50 mM, pH 7.5) containing 10 mM MgCl2. Nonspecific binding was determined using 10 mM 5′-N-ethylcarboxamidoadenosine diluted with the buffer. The mixtures were incubated at 25° C. for 60 min. Binding reactions were terminated by filtration through Whatman GF/B filters under a reduced pressure using a MT-24 cell harvester (Brandell, Gaithersburg, Md.). Filters were washed three times with 5 mL of 50 mM ice-cold Tris-HCl buffer (pH 7.5). […] After the filters were washed, the radioactivity was measured using a Beckman γ-counter. For the A1 and A2A assays, the radioactive agonists [^3H] N^6-chlorocyclopentyladenosine and [^3H] […] The Ki value was determined using GraphPad Prism for all assays.

hA3 AR [4] = biological target: T2, hA3 AR; experiment: Radioligand membrane binding assay, A3 AR; conditions: Table 3; expressed in CHO cells
Experimental: as §1

hA2A AR [5] = biological target: T1, hA2A AR; experiment: Functional assay at hA2A AR (Table 3); type: cell-based; set-up: expressed in transfected cells; conditions: Table 3 functional assay
A1AR [6] = biological target: T4, A1AR (Homo sapiens, UniProt P30542); experiment: Binding at A1AR with [3H]CCPA, CHO cells
T4 construct: expressed in transfected cells; host or cells: CHO cells
T4 sequence (P30542 1-326): T3 sequence (P30542 1-326)

A1AR [7] = biological target: T4, A1AR; experiment: [35S]GTPγS binding, A1AR; type: biochemical; conditions: CHO cells expressing A1AR
Experimental: [^35S]GTPγS binding was measured in 200 μl of buffer containing 50 mM Tris-HCl (pH 7.4), 1 mM EDTA, 1 mM MgCl2, 10 μM GDP, 1 mM dithiothreitol, 100 mM NaCl, 3 units/ml adenosine deaminase, 0.2 nM [^35S]GTPγS, 0.004% CHAPS, 0.5% bovine serum albumin and increasing concentrations of the ligands. Samples were started by addition of the membrane suspension (5-10 μg protein/tube) to the test tubes and incubated at 25° C. for 30 min. The assay was terminated by rapid filtration through Whatman GF/B filters, pre-soaked in 50 mM Tris-HCl (pH 7.4) containing 5 mM MgCl2 and 0.02% CHAPS. Non-specific binding of [^35S] GTPγS was measured in the presence of 10 μM unlabelled GTPγS. After the filters were washed, they were placed in scintillation vials containing 5 mL of Hydrofluor scintillation buffer and counted using a Perkin Elmer Liquid Scintillation Analyzer.

A2AAR = biological target: T5, A2AAR (Homo sapiens, UniProt P29274); experiment: Binding at A2AAR with [3H]CGS21680, HEK cells
T5 construct: expressed in transfected cells; host or cells: CHO
T5 sequence (P29274 whole entry): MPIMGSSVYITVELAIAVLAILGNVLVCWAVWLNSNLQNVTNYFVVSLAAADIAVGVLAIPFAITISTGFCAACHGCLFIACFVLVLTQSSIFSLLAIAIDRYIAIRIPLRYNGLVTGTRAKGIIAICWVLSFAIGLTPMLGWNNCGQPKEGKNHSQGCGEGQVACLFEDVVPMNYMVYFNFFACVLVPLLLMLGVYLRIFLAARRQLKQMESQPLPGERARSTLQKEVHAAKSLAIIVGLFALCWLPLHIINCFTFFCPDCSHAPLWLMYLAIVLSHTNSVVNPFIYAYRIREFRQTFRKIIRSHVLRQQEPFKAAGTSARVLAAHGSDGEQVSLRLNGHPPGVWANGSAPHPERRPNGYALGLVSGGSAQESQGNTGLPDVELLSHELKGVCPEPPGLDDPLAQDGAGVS

A3 adenosine receptor [8] = biological target: T6, A3 adenosine receptor (Homo sapiens, UniProt P0DMS8); experiment: cAMP inhibition assay, A3 adenosine receptor; type: cell-based; conditions: Table 8
T6 sequence (P0DMS8 1-318): T2 sequence (P0DMS8 1-318)
Text: (§2) This Example illustrates a preparation and some of the properties of conjugate 117 in accordance with an embodiment of the invention.

A1 adenosine receptor = biological target: T7, A1 adenosine receptor (Homo sapiens, UniProt P30542); experiment: cAMP inhibition assay, A1 adenosine receptor; type: cell-based; conditions: Table 8
T7 sequence (P30542 1-326): T3 sequence (P30542 1-326)
Text: as §2

A3 adenosine receptor [9] = biological target: T6, A3 adenosine receptor; experiment: Binding assay at A3 adenosine receptor (Table 7)
Experimental: CHO (Chinese hamster ovary) cells expressing the recombinant human ARs were cultured in Dulbecco's modified Eagle medium (DMEM) and F12 (1:1) supplemented with 10% fetal bovine serum, 100 units/mL penicillin, 100 μg/mL streptomycin, and 2 μmol/mL glutamine. After harvesting, cells were homogenized and suspended. Cells were then centrifuged at 500 g for 10 min, and the pellet was resuspended in 50 mM Tris-HCl buffer (pH 7.5) containing 10 mM MgCl2. The suspension was homogenized and was then recentrifuged at 20 000 g for 20 min at 4° C. The resultant pellets were resuspended in Tris buffer, incubated with adenosine deaminase for 30 min at 37° C., and the suspension was stored at −80° C. until the binding experiments. The protein concentration was measured using the Bradford assay.
as §2

T1 sequence (P29274 whole entry): as above

`CCNC(=O)[C@H]1O[C@@H](n2cnc3c(N)nc(NCCc4ccc(CCC(=O)NCCN)cc4)nc32)[C@H](O)[C@@H]1O` [compound 5, 2-[4-(2-aminoethylaminocarbonylethyl)phenylethylamino]-5′-N-ethylcarboxamidoadenosine] was tested, and the “hA2A, EC50 (class symbol)” value (hA2A AR [1]) was “FA (Full agonist at 10 μM with >90% of effect of NECA)”.
`CCNC(=O)[C@H]1OC(n2cnc3c(N)nc(NCCc4ccc(CCC(=O)NCCNC(=S)Nc5ccc(N=C=S)cc5)cc4)nc32)[C@@H](O)C1O` (stereo partly shown) [compound 6] was tested, and the inhibition at 10 µM (hA2A AR [2]; read-out: inhibition of binding at the hA2A AR) was 58%.
Work on `CCNC(=O)[C@H]1OC(n2cnc3c(N)nc(NCCc4ccc(CCC(=O)NCCNC(=S)Nc5ccc(NC(=S)NCCNC(C)=O)cc5)cc4)nc32)[C@@H](O)C1O` (stereo partly shown) [compound 7] yielded an EC50 (hA3 AR [3]) of 375 ± 40 nM, a Ki (hA2A AR [2]) of 70 nM and a Ki (hA1 AR) of 840 ± 100 nM.
With `CCNC(=O)[C@H]1OC(n2cnc3c(N)nc(NCCc4ccc(CCC(=O)NCCNC(C)=O)cc4)nc32)[C@@H](O)C1O` (stereo partly shown) [compound 16] the Ki (hA3 AR [4]) was 58 ± 24 nM, the EC50 (hA2A AR [5]) was 51 ± 8 nM and the EC50 (hA3 AR [3]) was 725 ± 110 nM. The Ki (hA2A AR [2]) was 110 ± 15 nM and the Ki (hA1 AR) was 984 ± 223 nM.
`NCCNC(=O)Cc1ccc(NC(=O)Cc2ccc(Nc3ncnc4c3ncn4[C@@H]3O[C@H](CO)[C@@H](O)[C@H]3O)cc2)cc1` [compound 101, N^6-[4-[[[4-[[[(2-Aminoethyl)amino]carbonyl]methyl]-anilino]carbonyl]methyl]phenyl]adenosine, reference compound] showed a Ki (A1AR [6]) of 10.4 ± 3.8 nM, an EC50 (A1AR [7]) of 120 ± 13 nM and a Ki (A2AAR) of 370 ± 100 nM.
Work on `O=C(O)CCc1ccc(NC(=S)NCCNC(=O)Cc2ccc(NC(=O)Cc3ccc(Nc4ncnc5c4ncn5[C@@H]4O[C@H](CO)[C@@H](O)[C@H]4O)cc3)cc2)cc1` [compound 104] yielded a Ki (A1AR [6]) of 30 nM, an EC50 (A1AR [7]) of 3000 ± 1300 nM and a Ki (A2AAR) of 800 ± 360 nM.
`NCCNCCNC(=O)Cc1ccc(NC(=O)Cc2ccc(Nc3ncnc4c3ncn4[C@@H]3O[C@H](CO)[C@@H](O)[C@H]3O)cc2)cc1` [compound 107, N-(2-Aminoethyl)-ADAC] was tested, and the Ki (A3 adenosine receptor [8]) was 61 nM, the Ki (A1 adenosine receptor) was 72 nM and the Ki (A1AR [6]) was 43 nM. For the same compound, the EC50 (A1AR [7]) was 50 nM, the Ki (A2AAR) was 300 ± 20 nM and the Ki (A3 adenosine receptor [9]) was 10 ± 2 nM.
